# Reference: patent US20260315492A1, “5,6-FUSED BICYCLIC AMIDES AND COMPOSITIONS FOR USE AS 15-PROSTAGLANDIN DEHYDROGENASE MODULATORS” (AMGEN INC., priority 2023, published 2026)
# Molecular target: T1, human recombinant 15-PGDH (Homo sapiens, UniProt P15428)
# T1 sequence (P15428 1-266): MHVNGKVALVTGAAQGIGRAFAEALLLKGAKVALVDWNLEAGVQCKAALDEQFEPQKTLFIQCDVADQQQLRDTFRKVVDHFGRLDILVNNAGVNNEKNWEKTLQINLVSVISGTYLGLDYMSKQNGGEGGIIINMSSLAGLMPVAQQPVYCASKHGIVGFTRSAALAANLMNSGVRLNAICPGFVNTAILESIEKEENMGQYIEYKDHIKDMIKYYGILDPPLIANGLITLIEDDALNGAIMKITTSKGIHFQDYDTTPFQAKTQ
# Assay: Inhibition of recombinant 15-PGDH enzymatic activity (NADH quantification after addition of PGE2 and NAD+)
# Format: biochemical
# Details: recombinant 15-PGDH; 15 min pre-incubation, 60-minute reaction, room temperature, pH 7.5; PGE2 and NAD+; read-out: PGDH-Lumi IC50
# Procedure: The compound dose-response of its inhibition of 15-PGDH activity was determined in human recombinant 15-PGDH enzymatical assays. These assays measured 15-PGDH enzymatic activity by quantifying the amount of NADH produced during a 60-minute reaction initiated by the addition of PGE2 and NAD+. Under the conditions of these experiments, the increase of NADH signal upon oxidation of PGE2 and reduction of NAD+ was linearly proportional to 15-PGDH enzymatic activity. The recombinant human, mouse, rat and dog 15-PGDH enzymatic assays were performed in a 25 μL volume of reaction buffer containing 50 mM Tris, pH 7.5, 0.01% Tween-20 and 100 μM DTT in a 384-well microtiter plate. In concentration-response experiments with tested compounds, 22 concentrations from 2-fold serial dilutions in DMSO were pre-incubated with 15-PGDH for 15 minutes at room temperature. Then, PGE2 and ß-NAD+ were added to initiate the 15-PGDH reaction. After 60 minutes at room temperature, the reaction was quenched and NADH signal was measured using a microtiter plate reader.
# The following data (Table 11-1) provides the IC50 of each compound for inhibiting enzymatic activity of recombinant 15-PGDH in the assay described above.
row,SMILES,IC50
1,"C[C@H]1COCCN1C(=O)c1cc2c(C3CC3)cc(-c3cnc4nn(C)cc4c3)nc2s1 [Compound B17S, (4-cyclopropyl-6-(2-methyl-2H-pyrazolo[3,4-b]pyridin-5-yl)thieno[2,3-b]pyridin-2-yl)((3S)-3-methyl-4-morpholinyl)methanone]",1.17 nM
2,"C[C@@H]1COCCN1C(=O)c1cc2ccc(-c3ccc(=O)n(C)c3)nc2s1 [Compound B32R, 1-methyl-5-(2-(((3R)-3-methyl-4-morpholinyl)carbonyl)thieno[2,3-b]pyridin-6-yl)-2(1H)-pyridinone]",1350 nM
3,"C[C@H]1COCCN1C(=O)c1cc2ccc(-c3ccc(=O)n(C)c3)nc2s1 [Compound B32S, 1-methyl-5-(2-(((3S)-3-methyl-4-morpholinyl)carbonyl)thieno[2,3-b]pyridin-6-yl)-2(1H)-pyridinone]",623 nM
4,"C[C@@H]1COCCN1C(=O)c1cc2ccc(-c3nccs3)nc2s1 [Compound B33R, ((3R)-3-methyl-4-morpholinyl)(6-(1,3-thiazol-2-yl)thieno[2,3-b]pyridin-2-yl)methanone]",4400 nM
5,"C[C@H]1COCCN1C(=O)c1cc2ccc(-c3nccs3)nc2s1 [Compound B33S, ((3S)-3-methyl-4-morpholinyl)(6-(1,3-thiazol-2-yl)thieno[2,3-b]pyridin-2-yl)methanone]",2650 nM
6,"C[C@H]1COCCN1C(=O)c1cc2ccc(-c3cc(=O)n(C)cn3)nc2s1 [Compound B34S, 3-methyl-6-(2-(((3S)-3-methyl-4-morpholinyl)carbonyl)thieno[2,3-b]pyridin-6-yl)-4(3H)-pyrimidinone]",200 nM
7,"C[C@@H]1COCCN1C(=O)c1cc2ccc(-c3cc(=O)n(C)cn3)nc2s1 [Compound B36R, 3-methyl-6-(2-(((3R)-3-methyl-4-morpholinyl)carbonyl)thieno[2,3-b]pyridin-6-yl)-4(3H)-pyrimidinone]",311 nM
8,"C[C@@H]1COCCN1C(=O)c1cc2ccc(-c3cnc4nn(C)nc4c3)nc2s1 [Compound B43R, ((3R)-3-methyl-4-morpholinyl)(6-(2-methyl-2H-[1,2,3]triazolo[4,5-b]pyridin-6-yl)thieno[2,3-b]pyridin-2-yl)methanone]",40.3 nM
9,"C[C@H]1COCCN1C(=O)c1cc2ccc(-c3cnc4nn(C)nc4c3)nc2s1 [Compound B43S, ((3S)-3-methyl-4-morpholinyl)(6-(2-methyl-2H-[1,2,3]triazolo[4,5-b]pyridin-6-yl)thieno[2,3-b]pyridin-2-yl)methanone]",23.4 nM
10,"C[C@@H]1COCCN1C(=O)c1cc2ccc(-c3cnc4c(c3)nnn4C)nc2s1 [Compound B44R, ((3R)-3-methyl-4-morpholinyl)(6-(3-methyl-3H-[1,2,3]triazolo[4,5-b]pyridin-6-yl)thieno[2,3-b]pyridin-2-yl)methanone]",56.7 nM
11,"C[C@H]1COCCN1C(=O)c1cc2ccc(-c3cnc4c(c3)nnn4C)nc2s1 [Compound B44S, ((3S)-3-methyl-4-morpholinyl)(6-(3-methyl-3H-[1,2,3]triazolo[4,5-b]pyridin-6-yl)thieno[2,3-b]pyridin-2-yl)methanone]",54.2 nM

# Second part, the compound after the results:
row,IC50,SMILES
1,0.475 nM,"CN(C(=O)c1cc2c(C3CC3)cc(-c3cnc4nn(C)cc4c3)nc2s1)C1CCC1 [Compound B15, N-cyclobutyl-4-cyclopropyl-N-methyl-6-(2-methyl-2H-pyrazolo[3,4-b]pyridin-5-yl)thieno[2,3-b]pyridine-2-carboxamide]"
2,9.51 nM,"Cn1cc2cc(-c3cnc4sc(C(=O)N5CCCCC5)cc4c3)cnc2n1 [Compound B16, (5-(2-methyl-2H-pyrazolo[3,4-b]pyridin-5-yl)thieno[2,3-b]pyridin-2-yl)(1-piperidinyl)methanone]"
3,1.58 nM,"CC(C)(C)OC(=O)N1CCN(c2ncc(-c3cc(C4CC4)c4cc(C(=O)N5CCCCC5)sc4n3)cn2)CC1 [Compound B18, 2-methyl-2-propanyl 4-(5-(4-cyclopropyl-2-(1-piperidinylcarbonyl)thieno[2,3-b]pyridin-6-yl)-2-pyrimidinyl)-1-piperazinecarboxylate]"
4,0.853 nM,"Cn1cc2cc(-c3cc(C4CC4)c4cc(C(=O)N5CCC(F)(F)CC5)sc4n3)cnc2n1 [Compound B19, (4-cyclopropyl-6-(2-methyl-2H-pyrazolo[3,4-b]pyridin-5-yl)thieno[2,3-b]pyridin-2-yl)(4,4-difluoro-1-piperidinyl)methanone]"
5,1.11 nM,"Cn1cc2cc(-c3cc(C4CC4)c4cc(C(=O)N5CCC(C(F)(F)F)CC5)sc4n3)cnc2n1 [Compound B20, (4-cyclopropyl-6-(2-methyl-2H-pyrazolo[3,4-b]pyridin-5-yl)thieno[2,3-b]pyridin-2-yl)(4-(trifluoromethyl)-1-piperidinyl)methanone]"
6,1.45 nM,"Cn1cc2cc(-c3ccc4cc(C(=O)N5CCC(C(F)(F)F)CC5)sc4n3)cnc2n1 [Compound B21, (6-(2-methyl-2H-pyrazolo[3,4-b]pyridin-5-yl)thieno[2,3-b]pyridin-2-yl)(4-(trifluoromethyl)-1-piperidinyl)methanone]"
7,3.61 nM,"O=C(c1cc2c(C3CC3)cc(-c3cnc(N4CCNCC4)nc3)nc2s1)N1CCCCC1 [Compound B22, (4-cyclopropyl-6-(2-(1-piperazinyl)-5-pyrimidinyl)thieno[2,3-b]pyridin-2-yl)(1-piperidinyl)methanone]"
8,0.215 nM,"Cn1cc2cc(-c3cc(C4CC4)c4cc(C(=O)N5CCCCC5)sc4n3)cnc2n1 [Compound B23, (4-cyclopropyl-6-(2-methyl-2H-pyrazolo[3,4-b]pyridin-5-yl)thieno[2,3-b]pyridin-2-yl)(1-piperidinyl)methanone]"
9,0.428 nM,"Cn1cc2cc(-c3cc(C4CC4)c4cc(C(=O)N5CCCOCC5)sc4n3)cnc2n1 [Compound B24, (4-cyclopropyl-6-(2-methyl-2H-pyrazolo[3,4-b]pyridin-5-yl)thieno[2,3-b]pyridin-2-yl)(1,4-oxazepan-4-yl)methanone]"
10,0.352 nM,"Cn1cc2cc(-c3ccc4cc(C(=O)N5CCC(F)(F)CC5)sc4n3)cnc2n1 [Compound B25, (4,4-difluoro-1-piperidinyl)(6-(2-methyl-2H-pyrazolo[3,4-b]pyridin-5-yl)thieno[2,3-b]pyridin-2-yl)methanone]"
11,1.7 nM,CC1CC(F)(F)CCN1C(=O)c1cc2ccc(-c3cnc4nn(C)cc4c3)nc2s1 (stereo not drawn) [Compound B27]
12,11.9 nM,"Cn1ccc2cc(-c3cnc4sc(C(=O)N5CCCCC5)cc4c3)ccc2c1=O [Compound B28, 2-methyl-6-(2-(1-piperidinylcarbonyl)thieno[2,3-b]pyridin-5-yl)-1(2H)-isoquinolinone]"
13,83.6 nM,"Cn1cc2cc(-c3ccc4cc(C(=O)N5CCOCC5(C)C)sc4n3)cnc2n1 [Compound B29, (3,3-dimethyl-4-morpholinyl)(6-(2-methyl-2H-pyrazolo[3,4-b]pyridin-5-yl)thieno[2,3-b]pyridin-2-yl)methanone]"
14,212 nM,"Cn1cc2cc(-c3ccc4cc(C(=O)N5CCOCC5C#N)sc4n3)cnc2n1 (stereo not drawn) [Compound B30, 4-((6-(2-methyl-2H-pyrazolo[3,4-b]pyridin-5-yl)thieno[2,3-b]pyridin-2-yl)carbonyl)-3-morpholinecarbonitrile]"
15,1.34 nM,CC1CN(C(=O)c2cc3ccc(-c4cnc5nn(C)cc5c4)nc3s2)CCO1 (stereo not drawn) [Compound B31]
16,576 nM,"Cn1cc(-c2ccc3cc(C(=O)N4CCOCC4)sc3n2)ccc1=O [Compound B35, 1-methyl-5-(2-(4-morpholinylcarbonyl)thieno[2,3-b]pyridin-6-yl)-2(1H)-pyridinone]"
17,2.38 nM,"Cn1cc2cc(-c3ccc4cc(C(=O)N5CC6CCC(C5)O6)sc4n3)cnc2n1 [Compound B37, (6-(2-methyl-2H-pyrazolo[3,4-b]pyridin-5-yl)thieno[2,3-b]pyridin-2-yl)(8-oxa-3-azabicyclo[3.2.1]octan-3-yl)methanone]"
18,1330 nM,"O=C(c1cc2ccc(-c3nccs3)nc2s1)N1CCOCC1 [Compound B38, 4-morpholinyl(6-(1,3-thiazol-2-yl)thieno[2,3-b]pyridin-2-yl)methanone]"
19,128 nM,"Cn1cnc(-c2ccc3cc(C(=O)N4CCOCC4)sc3n2)cc1=O [Compound B39, 3-methyl-6-(2-(4-morpholinylcarbonyl)thieno[2,3-b]pyridin-6-yl)-4(3H)-pyrimidinone]"
20,1.97 nM,"Cn1cc2cc(-c3ccc4cc(C(=O)N5CCOC(C)(C)C5)sc4n3)cnc2n1 [Compound B40, (2,2-dimethyl-4-morpholinyl)(6-(2-methyl-2H-pyrazolo[3,4-b]pyridin-5-yl)thieno[2,3-b]pyridin-2-yl)methanone]"
21,641 nM,"O=C(c1cc2ccc(-c3ccc(=O)[nH]c3)nc2s1)N1CCOCC1 [Compound B41, 5-(2-(4-morpholinylcarbonyl)thieno[2,3-b]pyridin-6-yl)-2(1H)-pyridinone]"
22,6.33 nM,"Cn1nc2cc(-c3ccc4cc(C(=O)N5CCOCC5)sc4n3)cnc2n1 [Compound B42, (6-(2-methyl-2H-[1,2,3]triazolo[4,5-b]pyridin-6-yl)thieno[2,3-b]pyridin-2-yl)(4-morpholinyl)methanone]"
